# Source: ChEMBL document CHEMBL3880421, “Indazole compounds and pharmaceutical compositions for inhibiting protein kinases, and methods for their use” (2003)
# Test: Antiproliferative activity against VEGF-stimulated HUVEC cells assessed as reduction in cell viability at 10 nM preincubated for 1 hr followed by addition of VEGF measured after 72 hrs by MTT assay
# Assay type: functional
# Conditions: Homo sapiens
row,SMILES,inhibition at 0.01 µM [%]
1,O=C(Cc1ccccc1)C(=O)Nc1cccc(C(=O)c2ccc3c(/C=C/c4ccccc4)n[nH]c3c2)c1,-37
2,CCC(C(=O)Nc1cccc(Oc2ccc3c(/C=C/c4ccccc4)n[nH]c3c2)c1)c1ccccc1C (stereo not given),46
3,O=C1CCC(C(=O)Nc2cccc(Nc3ccc4c(/C=C/c5ccccc5)n[nH]c4c3)c2)CC1,-7
4,CCC(C(=O)Nc1cccc(Nc2ccc3c(/C=C/c4ccccc4)n[nH]c3c2)c1)c1ccccc1C (stereo not given),-3
5,CC(C)(C)c1ccc(C(=O)Nc2cccc(C(=O)c3ccc4c(/C=C/c5ccccc5)n[nH]c4c3)c2)o1,71
6,Cc1cc(C(=O)Nc2cccc(C(=O)c3ccc4c(/C=C/c5ccccc5)n[nH]c4c3)c2)c(C)[nH]1,26
7,O=C(Nc1cccc(Oc2ccc3c(/C=C/c4ccccc4)n[nH]c3c2)c1)C1CCCO1 (stereo not given),51
8,O=C(Nc1cccc(Oc2ccc3c(/C=C/c4ccccc4)n[nH]c3c2)c1)C(=O)C1=CCCCC1,57
9,CC(C)[C@@H](O)C(=O)Nc1cccc(C(=O)c2ccc3c(/C=C/c4ccccc4)n[nH]c3c2)c1,33
10,Cc1cc(C(=O)Nc2cccc(Nc3ccc4c(/C=C/c5ccccc5)n[nH]c4c3)c2)n[nH]1,86
11,CC(=O)N1CCC(C(=O)Nc2cccc(C(=O)c3ccc4c(/C=C/c5ccccc5)n[nH]c4c3)c2)CC1,33
12,O=C(/C=C/C1C[C@H]2C=C[C@H]1C2)Nc1cccc(Nc2ccc3c(/C=C/c4ccccc4)n[nH]c3c2)c1 (stereo not given in full),30
13,Cc1ccc(C2(C(=O)Nc3cccc(Oc4ccc5c(/C=C/c6ccccc6)n[nH]c5c4)c3)CC2)cc1,4
14,CC(=O)N1CCC(C(=O)Nc2cccc(Nc3ccc4c(/C=C/c5ccccc5)n[nH]c4c3)c2)CC1,13
15,CC(C)=CC1C(C(=O)Nc2cccc(Oc3ccc4c(/C=C/c5ccccc5)n[nH]c4c3)c2)C1(C)C (stereo not given),24
16,CC(=O)N1CCCC1C(=O)Nc1cccc(Nc2ccc3c(/C=C/c4ccccc4)n[nH]c3c2)c1 (stereo not given),-2
17,CN1CCC=C(C(=O)Nc2cccc(C(=O)c3ccc4c(/C=C/c5ccccc5)n[nH]c4c3)c2)C1,20
18,C[C@@H]1[C@H](C)[C@H](C)C[C@@H]1C(=O)Nc1cccc(Nc2ccc3c(/C=C/c4ccccc4)n[nH]c3c2)c1,7
19,COc1ccc(C#N)c(C(=O)Nc2cccc(Nc3ccc4c(/C=C/c5ccccc5)n[nH]c4c3)c2)c1,-18
20,O=C(Cc1cccnc1)Nc1cccc(C(=O)c2ccc3c(/C=C/c4ccccc4)n[nH]c3c2)c1,21
21,CN1CC(C(=O)Nc2cccc(Oc3ccc4c(/C=C/c5ccccc5)n[nH]c4c3)c2)CC1=O (stereo not given),24
22,O=C(CCC(=O)N1CCCC1)Nc1cccc(Oc2ccc3c(/C=C/c4ccccc4)n[nH]c3c2)c1,48
23,COc1ccccc1/C=C/C(=O)Nc1cccc(Nc2ccc3c(/C=C/c4ccccc4)n[nH]c3c2)c1,10
24,C[C@@H](CC(=O)Nc1cccc(Nc2ccc3c(/C=C/c4ccccc4)n[nH]c3c2)c1)c1ccccc1,27
25,O=C(Nc1cccc(Nc2ccc3c(/C=C/c4ccccc4)n[nH]c3c2)c1)C1C[C@H]2C=C[C@H]1C2 (stereo not given in full),5
26,O=C(CC1=CCCCC1)Nc1cccc(Nc2ccc3c(/C=C/c4ccccc4)n[nH]c3c2)c1,81
27,O=C(Nc1cccc(Nc2ccc3c(/C=C/c4ccccc4)n[nH]c3c2)c1)C1CC2C=CC1CC2 (stereo not given),6

row,SMILES,inhibition at 0.01 µM [%]
1,CC1(C)OC(=O)CC1C(=O)Nc1cccc(C(=O)c2ccc3c(/C=C/c4ccccc4)n[nH]c3c2)c1 (stereo not given),5
2,O=C(CCN1CCCCC1)Nc1cccc(C(=O)c2ccc3c(/C=C/c4ccccc4)n[nH]c3c2)c1,2
3,CCO/C(C)=C/C(=O)Nc1cccc(Nc2ccc3c(/C=C/c4ccccc4)n[nH]c3c2)c1,85
4,Cc1ccc(CCC(=O)Nc2cccc(C(=O)c3ccc4c(/C=C/c5ccccc5)n[nH]c4c3)c2)cc1,57
5,Cc1cc(C(=O)Nc2cccc(Nc3ccc4c(/C=C/c5ccccc5)n[nH]c4c3)c2)c(C)[nH]1,76
6,CC(C)[C@@H](O)C(=O)Nc1cccc(Oc2ccc3c(/C=C/c4ccccc4)n[nH]c3c2)c1,32
7,CC(=O)NC(C)(C)CC(=O)Nc1cccc(Nc2ccc3c(/C=C/c4ccccc4)n[nH]c3c2)c1,-9
8,O=C1C[C@H](C(=O)Nc2cccc(C(=O)c3ccc4c(/C=C/c5ccccc5)n[nH]c4c3)c2)NC(=O)N1,-36
9,COC1CCCC(C(=O)Nc2cccc(Oc3ccc4c(/C=C/c5ccccc5)n[nH]c4c3)c2)C1 (stereo not given),91
10,C/C(=C\C(=O)Nc1cccc(C(=O)c2ccc3c(/C=C/c4ccccc4)n[nH]c3c2)c1)c1ccccc1C,99
11,CC(=O)c1ccc(C(=O)Nc2cccc(Nc3ccc4c(/C=C/c5ccccc5)n[nH]c4c3)c2)s1,78
12,COc1ccccc1/C=C/C(=O)Nc1cccc(C(=O)c2ccc3c(/C=C/c4ccccc4)n[nH]c3c2)c1,47
13,O=C(c1cccc(NC(=O)C2CC3C=CC2CC3)c1)c1ccc2c(/C=C/c3ccccc3)n[nH]c2c1 (stereo not given),42
14,COc1cccc(/C=C/C(=O)Nc2cccc(Oc3ccc4c(/C=C/c5ccccc5)n[nH]c4c3)c2)c1,64
15,CCCN(CCC)CC(=O)Nc1cccc(Oc2ccc3c(/C=C/c4ccccc4)n[nH]c3c2)c1,25
16,O=C(Nc1cccc(Nc2ccc3c(/C=C/c4ccccc4)n[nH]c3c2)c1)C1CCOC1 (stereo not given),-3
17,O=C(/C=C/C(=O)Nc1cccc(Oc2ccc3c(/C=C/c4ccccc4)n[nH]c3c2)c1)NCC1CC1,36
18,O=C(CC1CC2CCC1C2)Nc1cccc(Oc2ccc3c(/C=C/c4ccccc4)n[nH]c3c2)c1 (stereo not given),78
19,CC(C)=NOC(C)C(=O)Nc1cccc(C(=O)c2ccc3c(/C=C/c4ccccc4)n[nH]c3c2)c1 (stereo not given),28
20,O=C(c1cccc(NC(=O)c2cc(=O)[nH]c(=O)[nH]2)c1)c1ccc2c(/C=C/c3ccccc3)n[nH]c2c1,14
21,O=C1C[C@H](C(=O)Nc2cccc(Nc3ccc4c(/C=C/c5ccccc5)n[nH]c4c3)c2)NC(=O)N1,17
22,O=C(Nc1cccc(Oc2ccc3c(/C=C/c4ccccc4)n[nH]c3c2)c1)c1cc(=O)[nH]c(=O)[nH]1,90
23,CC(C)=CC1C(C(=O)Nc2cccc(C(=O)c3ccc4c(/C=C/c5ccccc5)n[nH]c4c3)c2)C1(C)C (stereo not given),3
24,O=C(CCC(=O)N1CCCC1)Nc1cccc(Nc2ccc3c(/C=C/c4ccccc4)n[nH]c3c2)c1,-8
25,O=C(/C=C/C(=O)Nc1cccc(C(=O)c2ccc3c(/C=C/c4ccccc4)n[nH]c3c2)c1)NCC1CC1,3
26,CCNc1ccccc1C(=O)Nc1cccc(Nc2ccc3c(/C=C/c4ccccc4)n[nH]c3c2)c1,71
27,O=C(Nc1cccc(Nc2ccc3c(/C=C/c4ccccc4)n[nH]c3c2)c1)C1CCCO1 (stereo not given),23

row,SMILES,inhibition at 0.01 µM [%]
1,O=C1NCC(C(=O)Nc2cccc(Nc3ccc4c(/C=C/c5ccccc5)n[nH]c4c3)c2)N1 (stereo not given),7
2,COc1ccccc1/C=C/C(=O)Nc1cccc(Oc2ccc3c(/C=C/c4ccccc4)n[nH]c3c2)c1,17
3,CN(C)CCCC(=O)Nc1cccc(Oc2ccc3c(/C=C/c4ccccc4)n[nH]c3c2)c1,96
4,O=C(Cc1cc(F)ccc1F)Nc1cccc(Nc2ccc3c(/C=C/c4ccccc4)n[nH]c3c2)c1,64
5,Cc1cc(C(=O)Nc2cccc(C(=O)c3ccc4c(/C=C/c5ccccc5)n[nH]c4c3)c2)no1,50
6,CC(C)c1ccccc1C(=O)Nc1cccc(Nc2ccc3c(/C=C/c4ccccc4)n[nH]c3c2)c1,79
7,CCO/C(C)=C/C(=O)Nc1cccc(C(=O)c2ccc3c(/C=C/c4ccccc4)n[nH]c3c2)c1,72
8,O=C(Nc1cccc(Nc2ccc3c(/C=C/c4ccccc4)n[nH]c3c2)c1)C(=O)C1=CCCCC1,23
9,CCCN(CCC)CC(=O)Nc1cccc(Nc2ccc3c(/C=C/c4ccccc4)n[nH]c3c2)c1,17
10,O=C(Nc1cccc(Oc2ccc3c(/C=C/c4ccccc4)n[nH]c3c2)c1)C1CCOC1 (stereo not given),40
11,CCO/C(C)=C/C(=O)Nc1cccc(Oc2ccc3c(/C=C/c4ccccc4)n[nH]c3c2)c1,87
12,O=C(Nc1cccc(Oc2ccc3c(/C=C/c4ccccc4)n[nH]c3c2)c1)c1ccc(=O)oc1,5
13,O=C(c1cccc(NC(=O)c2cccc3cc[nH]c23)c1)c1ccc2c(/C=C/c3ccccc3)n[nH]c2c1,58
14,O=C(Nc1cccc(Nc2ccc3c(/C=C/c4ccccc4)n[nH]c3c2)c1)C1=C[C@@H](O)[C@@H](O)[C@H](O)C1,6
15,O=C1CCC(C(=O)Nc2cccc(Oc3ccc4c(/C=C/c5ccccc5)n[nH]c4c3)c2)CC1,59
16,CC(C)(C)[C@@H](O)C(=O)Nc1cccc(C(=O)c2ccc3c(/C=C/c4ccccc4)n[nH]c3c2)c1,27
17,O=C(Nc1cccc(Nc2ccc3c(/C=C/c4ccccc4)n[nH]c3c2)c1)C1C[C@H]2C[C@@H]1CCC2O (stereo not given in full),-9
18,O=C(CCN1CCCCC1)Nc1cccc(Oc2ccc3c(/C=C/c4ccccc4)n[nH]c3c2)c1,52
19,Cc1cc(C(=O)Nc2cccc(Nc3ccc4c(/C=C/c5ccccc5)n[nH]c4c3)c2)no1,6
20,CC(C)CC(=O)C(=O)Nc1cccc(Oc2ccc3c(/C=C/c4ccccc4)n[nH]c3c2)c1,64
21,O=C(Nc1cccc(Nc2ccc3c(/C=C/c4ccccc4)n[nH]c3c2)c1)C1CC2CC(O)C1C2 (stereo not given),-20
22,Cn1cnc(CC(=O)Nc2cccc(Oc3ccc4c(/C=C/c5ccccc5)n[nH]c4c3)c2)c1,20
23,CN(C)C(=S)SCC(=O)Nc1cccc(Oc2ccc3c(/C=C/c4ccccc4)n[nH]c3c2)c1,70
24,CC(=O)NC(C)(C)CC(=O)Nc1cccc(C(=O)c2ccc3c(/C=C/c4ccccc4)n[nH]c3c2)c1,35
25,CC(=O)NC(C)(C)CC(=O)Nc1cccc(Oc2ccc3c(/C=C/c4ccccc4)n[nH]c3c2)c1,42
26,O=C(Nc1cccc(Oc2ccc3c(/C=C/c4ccccc4)n[nH]c3c2)c1)C1CC2C=CCC(C2)C1 (stereo not given),17
